Where a name gives a salt, the structure may show the parent alone. Square brackets hold non-standard residues; d marks the D form. Peptide text beside a SMILES is read from it. dPhe(F5) = N[C@H](Cc1c(F)c(F)c(F)c(F)c1F)C(=O)O; dBpa = N[C@H](Cc1ccc(C(=O)c2ccccc2)cc1)C(=O)O; dCha = N[C@H](CC1CCCCC1)C(=O)O
Tested on: patients with locally advanced or metastatic solid tumors
Experiment: Phase I single agent study of CBP501 (Study A): MTD, DLT, safety, antitumor activity
Format: in vivo, human
Source text: PK was examined in cycle (cy) 1. MTD is the level below that where 2 of 3-6 patients (pts) have DLT during cy 1-2.
A minimum of 3 patients were to be enrolled at each dose level, and 6 in the event of DLT.
(1) Neutropenia Gr 4 lasting 7 days (5 days in combination study) or Gr 3-4 neutropenia with fever and/or infection, (2) Thrombocytopenia Gr 4 (or grade 3 with bleeding), (3) Treatment-related non-hematological toxicity Gr 3 or 4 (excluding Gr 3 vomiting or diarrhea with sub-optimal prophylactic and curative treatment), and (4) Dosing delay greater than 2 weeks or treatment discontinuation due to treatment-emergent adverse events or related severe laboratory abnormalities.
The MTD was defined as the dose level below that in which DLT was observed during the first 2 cycles in at least 2 out of the 3-6 patients assessable for determination of MTD. The MTD was to be the RD for future studies. Patients evaluable for MTD were those who completed 2 treatment cycles or experienced DLT during the first 2 cycles.
(1) Echocardiogram or MUGA scan (baseline and every 2 cycles), (2) Cardiac enzymes (CPK-MB, CPK-MM, troponin; baseline and prior to each administration), and (3) ECG (before infusion, end of infusion, and 1 hr after infusion end).
(1) Pathologically-confirmed, locally advanced or metastatic solid tumors, refractory to standard therapy or for which conventional therapy is not reliably effective, (2) Presence of measurable disease according to RECIST criteria was not required, but was recommended in additional patients entered at MTD, (3) Age ≧18 years; Eastern Cooperative Oncology Group (ECOG) PS 0-2; Life expectancy >3 months, (4) Adequate organ function (hematological, hepatic, renal, metabolic), and (5) Signed informed consent

[1] = cardiac monitoring, both studies
[2] = single agent, 9.5 mg/m^2, 3 pts
[3] = single agent, 16.9 mg/m^2, 3 pts
[4] = single agent, 22.5 mg/m^2, 7 pts

N=C(N)NCCC[C@@H](NC(=O)[C@@H](CCCNC(=N)N)NC(=O)[C@@H](CCC(N)=O)NC(=O)[C@@H](CCCNC(=N)N)NC(=O)[C@@H](CCCNC(=N)N)NC(=O)[C@@H](CCCNC(=N)N)NC(=O)[C@@H](CC1CCCCC1)NC(=O)[C@@H](Cc1c(F)c(F)c(F)c(F)c1F)NC(=O)[C@@H](CO)NC(=O)[C@@H](Cc1c[nH]c2ccccc12)NC(=O)[C@@H](CO)NC(=O)[C@H](N)Cc1ccc(C(=O)c2ccccc2)cc1)C(=O)O [CBP501, H-(D)p-Benzoylphenylalanyl-(D)seryl-(D)tryptophyl-(D)seryl-(D)pentafluorophenylalanyl-(D)cyclohexylalanyl-(D)arginyl-(D)arginyl-(D)arginyl-(D)glutaminyl-(D)arginyl-(D)arginine acetate salt] (H-[dBpa][dS][dW][dS][dPhe(F5)][dCha][dR][dR][dR][dQ][dR][dR]-OH)
QTc > 500 ms (patients) (Single agent (16 pts), centralized ECG review): 0
Abdominal pain Gr 1-2 (Single-agent (n = 30)): 7
Abdominal pain Gr 3 (Single-agent (n = 30)): 2
Allergy (includes infusion reaction, flushing, rash, etc.) Gr 1-2 (Single-agent (n = 30)): 18
Diarrhea Gr 1-2 (Single-agent (n = 30)): 5
Diarrhea Gr 3 (Single-agent (n = 30)): 1
Fatigue Gr 1-2 (Single-agent (n = 30)): 14
Fatigue Gr 3 (Single-agent (n = 30)): 1
Headache Gr 1-2 (Single-agent (n = 30)): 3
Increased troponin Gr 3 (Single-agent (n = 30)): 1
Nausea/Vomiting Gr 1-2 (Single-agent (n = 30)): 5
Neutropenia Gr 1-2 (Single-agent (n = 30)): 3
QTc prolongation Gr 1-2 (Single-agent (n = 30)): 10
Thrombocytopenia Gr 1-2 (Single-agent (n = 30)): 4
Anemia Gr 1-2 (Single-agent (n = 30), 16 with baseline anemia): 22 (16*)
patients with QTc prolongation by >60 msec (both studies, centralized ECG review (16 + 24 patients)): 4
start of allergic reaction into the infusion (both studies, rash, hot flushes, urticaria): 10 to 60 min
pts with QTcB >500 msec [1]: 1
pts with QTcB prolongation >60 msec [1]: 2
time for troponin to return to normal levels (patient at DL 8, single-agent, Gr 3 troponin elevation): within one week
tolerability (single agent): well tolerated
Patients with allergic reaction Gr1 (single agent, 0.9 mg/m^2, 4 pts): 1
Patients with allergic reaction Gr2 (single agent, 7.2 mg/m^2, 3 pts): 3
Patients with allergic reaction Gr1 [2]: 1
Patients with allergic reaction Gr2 [2]: 2
Patients with allergic reaction Gr1 [3]: 1
Patients with allergic reaction Gr2 [3]: 1
Patients with allergic reaction Gr1 [4]: 3
Patients with allergic reaction Gr2 [4]: 4
pts with Gr 1-2 allergy (single agent, 30 pts treated (43%), interim summary): 13
Patients with allergic reaction Gr1 (single agent, TOTAL, 30 pts): 7
Patients with allergic reaction Gr2 (single agent, TOTAL, 30 pts): 11
MTD (single agent, doses up to 22.5 mg/m^2): not reached
DLT (single-agent, dose 22.5 mg/m^2, 7 pts, 11 cycles): 1
